Source: patent US7135467B2, “HIV integrase inhibitors” (priority 2003, dated 2006)

Each compound was assayed against T1, HIV-integrase (recombinant integrase) (Human immunodeficiency virus type 1 group M subtype B, UniProt P12497) (assay: HIV-Integrase Inhibition Activity (SPA bead strand-transfer assay)). Conditions: recombinant integrase on biotin labeled substrate DNA/SPA beads, P33 labeled target DNA; read-out: Activity (IC50 against HIV-integrase).
T1 construct: Recombinant integrase (0.26 ng) was incubated with the beads
Assay type: biochemical
Description: To evaluate in-vitro activity against HIV-integrase, 5 pmole of biotin labeled substrate DNA was bound to 100 μg of Streptavidin coated PVT SPA beads (Amersham Pharmacia Biotech). Recombinant integrase (0.26 ng) was incubated with the beads for 90 min at 37° C. Unbound enzyme was removed by washing the complex followed by addition of inhibitors and 0.1 fmol of P33 labeled target DNA. The reaction was stopped by adding EDTA to a final concentration of 10 mM. Samples were counted in TopCountNXT (Packard) and the CPM was used as a measure of integration. The reaction condition was as described in A. Engelman and R. Craigie, J. Virol. 69, 5908–5911 (1995). The sequences of substrate and target DNA were described in Nucleic Acid Research 22, 1121–1122 (1994). Activity equal to A refers to a compound having IC50=0.003 to 0.10 μM while B and C denote compounds the following IC50=0.1 to 1.0 μM and IC50≧1.0 μM respectively.
`Cn1c(N2CCN(c3ccccn3)CC2)nc(C(=O)NCc2ccc(F)cc2)c(O)c1=O` [Compound 75, N-[(4-fluorophenyl)methyl]-1,6-dihydro-5-hydroxy-1-methyl-6-oxo-2-[4-(2-pyridinyl)-1-piperazinyl]-4-pyrimidinecarboxamide] showed an IC50 of 3 to 100 nM.
Work on `Cc1ccc(CNC(=O)c2nc(N3CCCCS3(=O)=O)n(C)c(=O)c2O)cc1` [Compound 8, 1,6-dihydro-5-hydroxy-1-methyl-N-[(4-methylphenyl)methyl]-6-oxo-2-(tetrahydro-1,1-dioxido-2H-1,2-thiazin-2-yl)-4-pyrimidinecarboxamide] yielded an IC50 of 3 to 100 nM.
`Cn1c(N2CCCCS2(=O)=O)nc(C(=O)NCc2ccc(Cl)cc2)c(O)c1=O` [Compound 4, N-[(4-chlorophenyl)methyl]-1,6-dihydro-5-hydroxy-1-methyl-6-oxo-2-(tetrahydro-1,1-dioxido-2H-1,2-thiazin-2-yl)-4-pyrimidinecarboxamide] showed an IC50 of 3 to 100 nM.
`Cc1ncnn1-c1nc(C(=O)NCc2ccc(Cl)c(Cl)c2)c(O)c(=O)n1C` [Compound 62, N-[(3,4-dichlorophenyl)methyl]-1,6-dihydro-5-hydroxy-1-methyl-2-(5-methyl-1H-1,2,4-triazol-1-yl)-6-oxo-4-pyrimidinecarboxamide] was tested, and the IC50 was 3 to 100 nM.
`Cn1c(N2CCNCC2)nc(C(=O)NCc2ccc(F)cc2)c(O)c1=O` [Compound 69, N-[(4-fluorophenyl)methyl]-1,6-dihydro-5-hydroxy-1-methyl-6-oxo-2-(1-piperazinyl)-4-pyrimidinecarboxamide] was tested, and the IC50 was 100 to 1000 nM.
`COc1ccccc1CCNC(=O)c1nc(N2CCCCS2(=O)=O)n(C)c(=O)c1O` [Compound 38, 1,6-dihydro-5-hydroxy-N-[2-(2-methoxyphenyl)ethyl]-1-methyl-6-oxo-2-(tetrahydro-1,1-dioxido-2H-1,2-thiazin-2-yl)-4-pyrimidinecarboxamide] was tested, and the IC50 was no less than 1000 nM.
`Cn1c(N2CCCCS2(=O)=O)nc(C(=O)NCc2ccccc2)c(O)c1=O` [Compound 35, 1,6-dihydro-5-hydroxy-1-methyl-6-oxo-N-(phenylmethyl)-2-(tetrahydro-1,1-dioxido-2H-1,2-thiazin-2-yl)-4-pyrimidinecarboxamide] gave an IC50 of 100 to 1000 nM.
For `Cn1c(N2CCN(C(=O)N3CCNC3=O)CC2)nc(C(=O)NCc2ccc(F)cc2)c(O)c1=O` [Compound 85, N-[(4-fluorophenyl)methyl]-1,6-dihydro-5-hydroxy-1-methyl-6-oxo-2-[4-[(2-oxo-1-imidazolidinyl)carbonyl]-1-piperazinyl]-4-pyrimidinecarboxamide], the IC50 was 3 to 100 nM.
With `CNc1nc(C(=O)NCc2ccc(F)cc2)c(O)c(=O)n1C` [Compound 64, 5-Hydroxy-1-methyl-2-methylamino-6-oxo-1,6-dihydro-pyrimidine-4-carboxylic acid 4-fluoro-benzylamine] the IC50 was 3 to 100 nM.
For `CNC(=O)N1CCN(c2nc(C(=O)NCc3ccc(F)cc3)c(O)c(=O)n2C)CC1` [Compound 87, N-[(4-fluorophenyl)methyl]-1,6-dihydro-5-hydroxy-1-methyl-2-[4-[(methylamino)carbonyl]-1-piperazinyl]-6-oxo-4-pyrimidinecarboxamide], the IC50 was 3 to 100 nM.
Compound `Cn1c(N2CCN(c3ncccn3)CC2)nc(C(=O)NCc2ccc(F)cc2)c(O)c1=O` [Compound 77, N-[(4-fluorophenyl)methyl]-1,6-dihydro-5-hydroxy-1-methyl-6-oxo-2-[4-(2-pyrimidinyl)-1-piperazinyl]-4-pyrimidinecarboxamide] has an IC50 of 3 to 100 nM.
`Cn1c(N2CCCCS2(=O)=O)nc(C(=O)NCc2cccc(Cl)c2)c(O)c1=O` [Compound 5, N-[(3-chlorophenyl)methyl]-1,6-dihydro-5-hydroxy-1-methyl-6-oxo-2-(tetrahydro-1,1-dioxido-2H-1,2-thiazin-2-yl)-4-pyrimidinecarboxamide] was tested, and the IC50 was 3 to 100 nM.
`Cn1c(N2CCCCS2(=O)=O)nc(C(=O)NCc2cccc(F)c2)c(O)c1=O` [Compound 3, N-[(3-fluorophenyl)methyl]-1,6-dihydro-5-hydroxy-1-methyl-6-oxo-2-(tetrahydro-1,1-dioxido-2H-1,2-thiazin-2-yl)-4-pyrimidinecarboxamide] was tested, and the IC50 was 100 to 1000 nM.
`Cn1c(N2CCCCS2(=O)=O)nc(C(=O)NCc2ccc(F)c(C(F)(F)F)c2)c(O)c1=O` [Compound 20, N-[[4-fluoro-3-(trifluoromethyl)phenyl]methyl]-1,6-dihydro-5-hydroxy-1-methyl-6-oxo-2-(tetrahydro-1,1-dioxido-2H-1,2-thiazin-2-yl)-4-pyrimidinecarboxamide] gave an IC50 of 3 to 100 nM.
Compound `Cn1c(N)nc(C(=O)NCc2ccc(F)cc2)c(O)c1=O` [Compound 63, 2-amino-5-hydroxy-1-methyl-6-oxo-1,6-dihydro-pyrimidine-4-carboxylic acid 4-fluorobenzylamine] has an IC50 of 3 to 100 nM.
Work on `Cn1c(N2CCCCS2(=O)=O)nc(C(=O)NCC(c2ccccc2)c2ccccc2)c(O)c1=O` [Compound 25, N-(2,2-diphenylethyl)-1,6-dihydro-5-hydroxy-1-methyl-6-oxo-2-(tetrahydro-1,1-dioxido-2H-1,2-thiazin-2-yl)-4-pyrimidinecarboxamide] yielded an IC50 of no less than 1000 nM.
Work on `Cc1ccc(CCNC(=O)c2nc(N3CCCCS3(=O)=O)n(C)c(=O)c2O)cc1` [Compound 40, 1,6-dihydro-5-hydroxy-1-methyl-N-[2-(4-methylphenyl)ethyl]-6-oxo-2-(tetrahydro-1,1-dioxido-2H-1,2-thiazin-2-yl)-4-pyrimidinecarboxamide] yielded an IC50 of no less than 1000 nM.
Work on `COc1ccc(CNC(=O)c2nc(N3CCCCS3(=O)=O)n(C)c(=O)c2O)cc1` [Compound 10, 1,6-dihydro-5-hydroxy-N-[(4-methoxyphenyl)methyl]-1-methyl-6-oxo-2-(tetrahydro-1,1-dioxido-2H-1,2-thiazin-2-yl)-4-pyrimidinecarboxamide] yielded an IC50 of 3 to 100 nM.
Work on `Cn1c(N2CCCCS2(=O)=O)nc(C(=O)NCc2ccc(F)cc2)c(O)c1=O` [Compound 1, N-[(4-fluorophenyl)methyl]-1,6-dihydro-5-hydroxy-1-methyl-6-oxo-2-(tetrahydro-1,1-dioxido-2H-1,2-thiazin-2-yl)-4-pyrimidinecarboxamide] yielded an IC50 of 3 to 100 nM.
`Cn1c(N2CCCCS2(=O)=O)nc(C(=O)NCc2cccc(OC(F)(F)F)c2)c(O)c1=O` [Compound 48, 1,6-dihydro-5-hydroxy-1-methyl-6-oxo-2-(tetrahydro-1,1-dioxido-2H-1,2-thiazin-2-yl)-N-[[3-(trifluoromethoxy)phenyl]methyl]-4-pyrimidinecarboxamide] showed an IC50 of 100 to 1000 nM.
With `Cn1c(N2CCN(c3ccccc3)CC2)nc(C(=O)NCc2ccc(F)cc2)c(O)c1=O` [Compound 79, N-[(4-fluorophenyl)methyl]-1,6-dihydro-5-hydroxy-1-methyl-6-oxo-2-(4-phenyl-1-piperazinyl)-4-pyrimidinecarboxamide] the IC50 was 3 to 100 nM.
For `Cc1ccc(CNC(=O)c2nc(N3CCCCS3(=O)=O)n(C)c(=O)c2O)o1` [Compound 23, 1,6-dihydro-5-hydroxy-1-methyl-N-[(5-methyl-2-furanyl)methyl]-6-oxo-2-(tetrahydro-1,1-dioxido-2H-1,2-thiazin-2-yl)-4-pyrimidinecarboxamide], the IC50 was 3 to 100 nM.
`Cn1c(N2CCN(CCO)CC2)nc(C(=O)NCc2ccc(F)cc2)c(O)c1=O` [Compound 67, N-[(4-fluorophenyl)methyl]-1,6-dihydro-5-hydroxy-2-[4-(2-hydroxyethyl)-1-piperazinyl]-1-methyl-6-oxo-4-pyrimidinecarboxamide] was tested, and the IC50 was 3 to 100 nM.
Compound `Cc1ccccc1CNC(=O)c1nc(N2CCCCS2(=O)=O)n(C)c(=O)c1O` [Compound 37, 1,6-dihydro-5-hydroxy-1-methyl-N-[(2-methylphenyl)methyl]-6-oxo-2-(tetrahydro-1,1-dioxido-2H-1,2-thiazin-2-yl)-4-pyrimidinecarboxamide] has an IC50 of 100 to 1000 nM.
`Cn1c(N2CCCCS2(=O)=O)nc(C(=O)NCCc2cccc(Cl)c2)c(O)c1=O` [Compound 30, N-[2-(3-chlorophenyl)ethyl]-1,6-dihydro-5-hydroxy-1-methyl-6-oxo-2-(tetrahydro-1,1-dioxido-2H-1,2-thiazin-2-yl)-4-pyrimidinecarboxamide] showed an IC50 of 100 to 1000 nM.
Compound `Cn1c(N2CCCCS2(=O)=O)nc(C(=O)NCCc2c[nH]c3ccccc23)c(O)c1=O` [Compound 49, 1,6-dihydro-5-hydroxy-N-[2-(1H-indol-3-yl)ethyl]-1-methyl-6-oxo-2-(tetrahydro-1,1-dioxido-2H-1,2-thiazin-2-yl)-4-pyrimidinecarboxamide] has an IC50 of no less than 1000 nM.
`Cn1c(N2CCCCS2(=O)=O)nc(C(=O)NCCc2cccc(F)c2)c(O)c1=O` [Compound 21, N-[2-(3-fluorophenyl)ethyl]-1,6-dihydro-5-hydroxy-1-methyl-6-oxo-2-(tetrahydro-1,1-dioxido-2H-1,2-thiazin-2-yl)-4-pyrimidinecarboxamide] gave an IC50 of no less than 1000 nM.
Compound `Cn1c(N2CCCCS2(=O)=O)nc(C(=O)NCc2ccccc2Cl)c(O)c1=O` [Compound 36, N-[(2-chlorophenyl)methyl]-1,6-dihydro-5-hydroxy-1-methyl-6-oxo-2-(tetrahydro-1,1-dioxido-2H-1,2-thiazin-2-yl)-4-pyrimidinecarboxamide] has an IC50 of 100 to 1000 nM.
Compound `Cn1c(N2CCCCS2(=O)=O)nc(C(=O)NCCc2ccc(F)cc2)c(O)c1=O` [Compound 16, N-[2-(4-fluorophenyl)ethyl]-1,6-dihydro-5-hydroxy-1-methyl-6-oxo-2-(tetrahydro-1,1-dioxido-2H-1,2-thiazin-2-yl)-4-pyrimidinecarboxamide] has an IC50 of no less than 1000 nM.
